What was measured:
[1] = tested on: basophils in human whole blood; assay: Human whole blood FcεRI (anti-IgE)-stimulated CD63 expression on basophils; format: cell-based; conditions: read-out: IC50, FcεRI-driven CD63 surface expression on basophils
Method: The blood was lysed and fixed, then washed. The percentage of CD63+ cells was measured after gating on the CCR3-positive basophil population by FACS analysis.
The blood was lysed, fixed, and then washed. The percentage of CD63+ cells was measured after gating on the C-C chemokine receptor type 3-positive basophil population by FACS analysis.

[2] = biological target: Human recombinant BTK (Homo sapiens, UniProt Q06187); assay: Human recombinant BTK enzymatic assay (Caliper LabChip); conditions: 20 μM ATP, read-out: Biochemical IC50, BTK
Sequence of Human recombinant BTK (Q06187 whole entry): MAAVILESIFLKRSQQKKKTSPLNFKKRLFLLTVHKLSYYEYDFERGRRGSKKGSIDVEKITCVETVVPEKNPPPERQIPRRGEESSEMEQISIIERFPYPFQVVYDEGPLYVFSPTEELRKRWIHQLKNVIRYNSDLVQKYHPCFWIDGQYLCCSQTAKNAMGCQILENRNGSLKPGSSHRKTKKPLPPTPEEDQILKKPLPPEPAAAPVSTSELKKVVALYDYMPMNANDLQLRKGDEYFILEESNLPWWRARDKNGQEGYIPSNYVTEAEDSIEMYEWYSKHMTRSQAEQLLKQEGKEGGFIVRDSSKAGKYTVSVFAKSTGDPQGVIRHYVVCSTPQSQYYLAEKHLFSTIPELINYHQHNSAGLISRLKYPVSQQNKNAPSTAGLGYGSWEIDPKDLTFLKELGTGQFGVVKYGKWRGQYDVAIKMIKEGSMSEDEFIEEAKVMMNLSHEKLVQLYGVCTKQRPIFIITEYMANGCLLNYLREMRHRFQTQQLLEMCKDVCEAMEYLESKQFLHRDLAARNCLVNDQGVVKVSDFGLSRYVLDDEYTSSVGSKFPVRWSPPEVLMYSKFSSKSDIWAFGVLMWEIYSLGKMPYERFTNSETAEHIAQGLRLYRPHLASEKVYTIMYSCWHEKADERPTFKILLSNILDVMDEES
Excerpt: (§6) Product turnover was quantitated using a Caliper LabChip 3000 (Caliper Life Sciences, Hopkinton, MA, USA). Similar assays were used for other kinases (Tec kinase, interleukin [IL]-2-inducible T-cell kinase, B-lymphocyte kinase, T cell-expressed kinase, and bone marrow-expressed kinase), with ATP concentrations equal to the apparent Michaelis constant (KM^app) for each kinase. […] [^33P]-ATP was used as a substrate at a concentration equal to KM^app, and incorporation of radiolabel into peptide or protein substrates was measured.

[3] = biological target: Txk (Homo sapiens, UniProt P42681); assay: Txk enzymatic assay; conditions: ATP at apparent KM; read-out: Biochemical IC50, Txk
Method: (§7) Product turnover was quantitated using a Caliper LabChip 3000 (Caliper Life Sciences, Hopkinton, MA, USA). […] [^33P]-ATP was used as a substrate at a concentration equal to KM^app, and incorporation of radiolabel into peptide or protein substrates was measured.

[4] = tested on: KLH-immunized BALB/c mice; assay: Primary anti-KLH antibody responses in mice; format: in vivo, mouse
Method: Activity against a KLH-induced antibody response in mice was used as a measure of antigen-driven B-cell responses. Female BALB/c mice (8–12 weeks old) were immunized intraperitoneally (IP) with 250 μg of KLH (Pierce, Rockford, IL, USA) in phosphate-buffered saline on day 0. […] Captured anti-KLH antibodies were detected using horseradish peroxidase-conjugated antibody specific for mouse IgM or IgG (Southern Biotechnology Associates, Birmingham, AL, USA) and the 3,3′,5,5′-tetramethylbenzidine peroxidase substrate system (Kirkegaard and Perry Laboratories, Gaithersburg, MD, USA). Optical densities of developed plates were quantitated in a SpectraMax Plus ELISA plate reader (Molecular Devices, Sunnyvale, CA, USA). Sera collected from mice on day 7 or day 14 after immunization with KLH were pooled and used as a standard comparator.

[5] = tested on: human peripheral blood B cells; assay: CD40L-induced CD69 expression on peripheral blood B cells; format: cell-based; conditions: B-cell, CD40 (CD40L)
Excerpt: (§1) The cells were stained with fluorescein isothiocyanate (FITC)-conjugated mouse anti-human CD20 antibody (BD Pharmingen, San Diego, CA, USA) and either allophycocyanin (APC)-conjugated mouse anti-human CD86 monoclonal antibody (BD Pharmingen) or phycoerythrin (PE)-conjugated mouse anti-human CD69 monoclonal antibody (BD Pharmingen). The amount of CD86 or CD69 expression was quantitated by median fluorescence intensity (MFI) after gating on the CD20-positive B-cell population using fluorescence-activated cell sorting (FACS) analysis. For analogous experiments measuring the effect of CD40 or Toll-like receptor 4 (TLR4) stimulation on these endpoints, either human IZ-CD40L or lipopolysaccharide (LPS) was used to stimulate the cells.

[6] = tested on: B cells in mouse whole blood; assay: Mouse whole blood BCR-stimulated CD69 expression on B cells; format: cell-based
Method: For mouse whole blood, stimulation used AffiniPure F(ab’)2 fragment goat anti-mouse IgG + IgM (Jackson ImmunoResearch) at 200 μg/mL and 1 ng/mL mouse IL-4 (R&D Systems, Minneapolis, MN, USA) for 5 hours at 37°C with agitation. After staining with APC rat anti-mouse CD19 antibody (BD Biosciences) to identify the B cells, the amount of CD69 expression was quantitated by FACS using FITC-conjugated anti-mouse CD69 monoclonal antibody (BD Biosciences).

[7] = tested on: Ramos B cells; assay: BCR-stimulated calcium flux in Ramos B cells; format: cell-based; conditions: Homo sapiens, BCR (anti-IgM), read-out: IC50, Ca2+ flux
Method: BCR-stimulated calcium flux in Ramos B cells: Human Ramos (RA1) B cells, a Burkitt’s lymphoma cell line (ATCC, CRL-1596), pre-loaded with calcium indicator dye (BD Biosciences, San Jose, CA, USA) in media containing 10% FBS, were plated on black clear-bottom assay plates at a density of 1 × 10^6 cells/mL (150,000 cells per well).

[8] = tested on: B cells in human whole blood; assay: Human whole blood BCR-stimulated CD69 expression on B cells; format: cell-based; conditions: B-cell
Excerpt: The cells were stained with FITC-conjugated mouse anti-human CD20 (BD Pharmingen) and PE-conjugated mouse anti-human CD69 monoclonal antibody (BD Pharmingen), lysed and fixed, then washed. The amount of CD69 expression was quantitated by MFI after gating on the CD20-positive B-cell population as measured by FACS analysis.
The cells were stained with fluorescein isothiocyanate (FITC)-conjugated mouse anti-human CD20 (BD Pharmingen, San Diego, CA, USA) and phycoerythrin (PE)-conjugated mouse anti-human CD69 monoclonal antibody (BD Pharmingen), lysed, fixed, and then washed. The amount of CD69 expression was quantitated by MFI after gating on the CD20-positive B-cell population measured by FACS analysis.

[9] = tested on: human monocytic osteoclast precursor cells; assay: RANK-L-induced osteoclastogenesis; format: cell-based; conditions: TRAP-positive multinucleated cells, 9 days in culture
Method: After 9 days in culture, cells were fixed and stained for tartrate-resistant acid phosphatase (TRAP; Sigma-Aldrich, St. Louis, MO, USA), and the number of TRAP-positive multinucleated cells (>2 nuclei per cell) was measured as described previously.

[10] = tested on: human peripheral blood mononuclear cells; assay: IC-stimulated TNF-α production in peripheral blood mononuclear cells; format: cell-based; conditions: PBMC, FcγR (immune complex)
Method: (§2) TNF-α and IL-6 levels were measured using enzyme-linked immunosorbent assay (ELISA; TNF-α OptEIA, BD Biosciences; IL-6 OptEIA, BD Biosciences). For analogous experiments measuring the effect of Toll-like receptor 4 stimulation on these endpoints, lipopolysaccharide (Sigma-Aldrich, St. Louis, MO, USA) was used as the stimulus.

[11] = biological target: BLK (Homo sapiens, UniProt P51451); assay: BLK enzymatic assay; conditions: read-out: Biochemical IC50, BLK; ATP at apparent KM
Sequence of BLK (P51451 whole entry, species assumed): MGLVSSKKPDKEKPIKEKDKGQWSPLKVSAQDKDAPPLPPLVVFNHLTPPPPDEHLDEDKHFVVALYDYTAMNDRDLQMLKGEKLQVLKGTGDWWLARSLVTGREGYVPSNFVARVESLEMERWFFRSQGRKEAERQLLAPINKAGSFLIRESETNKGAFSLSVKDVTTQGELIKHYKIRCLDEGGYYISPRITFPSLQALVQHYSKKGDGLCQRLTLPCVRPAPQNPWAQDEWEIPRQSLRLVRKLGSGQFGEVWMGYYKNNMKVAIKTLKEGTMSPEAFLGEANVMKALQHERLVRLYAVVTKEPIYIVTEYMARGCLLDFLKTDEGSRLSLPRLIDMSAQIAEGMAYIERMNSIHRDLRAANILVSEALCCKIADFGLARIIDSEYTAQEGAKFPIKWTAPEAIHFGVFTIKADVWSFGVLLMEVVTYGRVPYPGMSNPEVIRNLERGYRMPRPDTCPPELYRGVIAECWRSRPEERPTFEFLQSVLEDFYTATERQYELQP
Method: as §7

[12] = tested on: CIA DBA/1 mice; assay: Collagen-induced arthritis (CIA) mouse model, preventative dosing, with or without MTX; format: in vivo
Method: (§3) Induction of CIA was performed as described previously. In brief, male DBA/1 mice (Harlan Laboratories, 8–10 weeks old) were injected subcutaneously at the base of the tail with bovine type II collagen (200 μg) admixed with reconstituted Sigma Adjuvant System (Sigma-Aldrich). The mice were boosted 21 days later in the same manner. […] Dosing proceeded from day 0 through study completion (36 days).
(§4) Threshold settings were optimized using histomorphometric methods.

[13] = tested on: CD27+CD20+ memory B cells (peripheral blood); assay: BCR-stimulated CD86 expression on memory B cells; format: cell-based; conditions: Homo sapiens, B-cell, BCR (anti-IgM)
Excerpt: as §1

[14] = tested on: human B cells; assay: Antigen receptor-dependent signaling and functional endpoints in human B cells (summary); format: cell-based; conditions: read-out: IC50, antigen receptor-dependent signaling and functional endpoints (cytokine production, co-stimulatory molecule expression, proliferation)
[15] = biological target: Tec (Homo sapiens, UniProt P42680); assay: Tec kinase enzymatic assay; conditions: ATP at apparent KM; read-out: Biochemical IC50, Tec
Sequence of Tec (P42680 whole entry): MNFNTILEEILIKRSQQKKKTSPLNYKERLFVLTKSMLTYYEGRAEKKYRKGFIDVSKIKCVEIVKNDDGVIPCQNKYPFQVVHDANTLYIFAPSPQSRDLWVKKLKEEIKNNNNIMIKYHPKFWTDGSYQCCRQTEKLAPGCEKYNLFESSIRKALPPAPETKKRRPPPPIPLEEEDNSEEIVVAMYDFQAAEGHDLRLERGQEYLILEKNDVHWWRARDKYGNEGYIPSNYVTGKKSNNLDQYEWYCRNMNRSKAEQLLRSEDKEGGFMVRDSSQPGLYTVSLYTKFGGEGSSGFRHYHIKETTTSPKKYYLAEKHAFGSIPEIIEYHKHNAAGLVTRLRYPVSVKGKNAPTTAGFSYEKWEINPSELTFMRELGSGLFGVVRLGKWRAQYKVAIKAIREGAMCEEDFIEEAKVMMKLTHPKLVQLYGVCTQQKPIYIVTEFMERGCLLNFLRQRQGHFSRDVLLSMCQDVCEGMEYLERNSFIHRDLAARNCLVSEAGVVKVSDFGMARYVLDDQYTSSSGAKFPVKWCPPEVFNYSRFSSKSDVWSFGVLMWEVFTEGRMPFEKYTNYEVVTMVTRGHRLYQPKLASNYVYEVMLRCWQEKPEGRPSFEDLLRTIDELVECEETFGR
Excerpt: as §6

[16] = biological target: BMX (Homo sapiens, UniProt P51813); assay: BMX enzymatic assay; conditions: read-out: Biochemical IC50, BMX; ATP at apparent KM
Sequence of BMX (P51813 whole entry, species assumed): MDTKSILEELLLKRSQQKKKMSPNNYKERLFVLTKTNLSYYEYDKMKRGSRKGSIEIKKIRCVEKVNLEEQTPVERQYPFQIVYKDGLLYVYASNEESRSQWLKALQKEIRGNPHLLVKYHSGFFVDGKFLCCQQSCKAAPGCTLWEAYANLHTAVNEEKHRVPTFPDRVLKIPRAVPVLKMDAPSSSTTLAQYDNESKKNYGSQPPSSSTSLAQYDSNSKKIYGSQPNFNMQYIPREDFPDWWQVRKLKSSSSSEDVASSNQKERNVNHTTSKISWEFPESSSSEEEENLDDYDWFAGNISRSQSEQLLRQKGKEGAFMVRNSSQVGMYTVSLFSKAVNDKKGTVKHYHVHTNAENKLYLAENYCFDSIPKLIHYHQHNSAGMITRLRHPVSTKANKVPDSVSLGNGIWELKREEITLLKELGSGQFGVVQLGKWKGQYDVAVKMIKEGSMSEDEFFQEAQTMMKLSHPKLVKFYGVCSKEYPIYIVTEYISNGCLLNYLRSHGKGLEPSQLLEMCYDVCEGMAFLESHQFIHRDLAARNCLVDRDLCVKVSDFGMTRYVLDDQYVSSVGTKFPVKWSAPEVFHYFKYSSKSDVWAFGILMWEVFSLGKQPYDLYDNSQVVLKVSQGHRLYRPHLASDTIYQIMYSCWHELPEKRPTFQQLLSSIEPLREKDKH
Method: as §7

[17] = tested on: human peripheral blood B cells; assay: BCR-stimulated CD86 expression on human peripheral blood B cells; format: cell-based; conditions: B-cell, BCR (anti-IgM)
Excerpt: as §1

[18] = biological target: IGF1R (Homo sapiens, UniProt P08069); assay: IGF1R enzymatic assay; conditions: read-out: Biochemical IC50, IGF1R
Sequence of IGF1R (P08069 31-1367, species assumed): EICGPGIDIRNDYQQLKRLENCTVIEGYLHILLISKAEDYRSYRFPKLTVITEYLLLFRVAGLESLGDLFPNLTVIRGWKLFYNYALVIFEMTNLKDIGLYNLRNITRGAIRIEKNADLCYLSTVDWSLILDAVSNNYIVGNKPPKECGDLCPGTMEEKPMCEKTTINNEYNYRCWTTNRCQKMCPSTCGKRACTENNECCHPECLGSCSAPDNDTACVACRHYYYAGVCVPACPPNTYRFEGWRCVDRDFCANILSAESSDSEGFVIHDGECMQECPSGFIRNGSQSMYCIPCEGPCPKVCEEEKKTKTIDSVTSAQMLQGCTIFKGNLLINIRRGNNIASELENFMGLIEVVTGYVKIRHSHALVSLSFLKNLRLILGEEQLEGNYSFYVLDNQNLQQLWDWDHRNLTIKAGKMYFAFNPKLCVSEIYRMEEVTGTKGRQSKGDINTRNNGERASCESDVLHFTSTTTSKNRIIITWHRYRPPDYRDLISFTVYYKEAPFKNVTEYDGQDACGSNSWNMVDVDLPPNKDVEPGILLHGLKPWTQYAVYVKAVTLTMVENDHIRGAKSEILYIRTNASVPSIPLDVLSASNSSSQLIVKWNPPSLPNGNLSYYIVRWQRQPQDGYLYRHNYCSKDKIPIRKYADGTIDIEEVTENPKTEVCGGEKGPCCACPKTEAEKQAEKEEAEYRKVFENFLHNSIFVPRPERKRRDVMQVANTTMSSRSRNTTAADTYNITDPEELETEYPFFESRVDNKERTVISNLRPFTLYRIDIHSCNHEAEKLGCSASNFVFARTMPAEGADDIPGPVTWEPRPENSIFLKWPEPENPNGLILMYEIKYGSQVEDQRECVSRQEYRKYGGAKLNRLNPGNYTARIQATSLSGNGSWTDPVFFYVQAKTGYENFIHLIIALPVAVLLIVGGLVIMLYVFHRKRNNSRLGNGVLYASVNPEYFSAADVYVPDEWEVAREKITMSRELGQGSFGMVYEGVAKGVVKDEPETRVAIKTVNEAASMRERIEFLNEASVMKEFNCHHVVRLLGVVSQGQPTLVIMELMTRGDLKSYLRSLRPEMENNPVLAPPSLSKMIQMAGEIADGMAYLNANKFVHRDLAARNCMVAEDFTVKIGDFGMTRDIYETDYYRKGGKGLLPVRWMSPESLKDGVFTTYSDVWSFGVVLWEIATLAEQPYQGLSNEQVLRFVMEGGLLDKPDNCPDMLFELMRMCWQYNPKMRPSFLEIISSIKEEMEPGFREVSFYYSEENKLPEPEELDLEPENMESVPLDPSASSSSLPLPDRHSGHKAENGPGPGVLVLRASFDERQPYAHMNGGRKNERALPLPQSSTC
Excerpt: as §6

[19] = biological target: FGR (Homo sapiens, UniProt P09769); assay: FGR enzymatic assay; conditions: read-out: Biochemical IC50, FGR
[20] = tested on: human tonsillar B cells; assay: cells; conditions: B-cell, read-out: IC50, Proliferation
Method: The cells were then labeled with [^3H]-thymidine and incubated overnight at 37°C. Cells were then harvested onto filter plates and the amount of [^3H]-thymidine incorporation, as a measure of B-cell proliferation, was determined using liquid scintillation counting.

[21] = tested on: CIA DBA/1 mice; assay: CIA mouse model, preventative dosing, with or without murine CTLA-4-Ig; format: in vivo; conditions: BMS-986142 10 mg/kg PO QD
Method: as §3, §4

[22] = tested on: human peripheral blood B cells; assay: CD40L-induced CD86 expression on peripheral blood B cells; format: cell-based; conditions: B-cell, CD40 (CD40L)
Excerpt: as §1

[23] = tested on: human peripheral blood mononuclear cells; assay: LPS (TLR4)-stimulated TNF-α in peripheral blood mononuclear cells; format: cell-based; conditions: PBMC
Method: as §2

[24] = biological target: ITK (Homo sapiens, UniProt Q08881); assay: ITK enzymatic assay; conditions: ATP at apparent KM; read-out: Biochemical IC50, ITK
Sequence of ITK (Q08881 whole entry, species assumed): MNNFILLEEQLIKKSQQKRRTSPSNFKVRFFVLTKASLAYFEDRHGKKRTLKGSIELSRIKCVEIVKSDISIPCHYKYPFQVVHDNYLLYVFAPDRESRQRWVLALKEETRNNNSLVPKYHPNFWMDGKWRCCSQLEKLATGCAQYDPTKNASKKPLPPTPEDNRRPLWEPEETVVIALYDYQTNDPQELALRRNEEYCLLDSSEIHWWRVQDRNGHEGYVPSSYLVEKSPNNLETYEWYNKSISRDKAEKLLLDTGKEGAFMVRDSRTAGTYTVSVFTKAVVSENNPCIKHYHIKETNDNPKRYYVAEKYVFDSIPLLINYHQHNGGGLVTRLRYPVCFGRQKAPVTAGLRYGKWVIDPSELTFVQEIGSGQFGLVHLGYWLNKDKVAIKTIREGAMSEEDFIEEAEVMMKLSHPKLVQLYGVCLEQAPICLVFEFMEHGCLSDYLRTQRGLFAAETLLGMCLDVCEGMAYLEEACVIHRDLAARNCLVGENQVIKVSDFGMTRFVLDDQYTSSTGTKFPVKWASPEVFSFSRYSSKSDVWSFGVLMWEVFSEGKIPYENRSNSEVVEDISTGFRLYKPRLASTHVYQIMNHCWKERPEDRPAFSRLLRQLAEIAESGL
Excerpt: as §6

[25] = tested on: human tonsillar B cells; assay: BCR-stimulated TNF-α from human tonsillar B cells; format: cell-based; conditions: B-cell, BCR (anti-IgM)
Method: (§5) After 1 hour of incubation at 37°C, the cells were stimulated with 40 μg/mL AffiniPure F(ab’)2 fragment goat anti-human IgM (Jackson ImmunoResearch) and 10 ng/mL IL-4 (Peprotech). After an additional 4.5 hours of incubation, the supernatants were collected and the levels of IL-6 and TNF-α were measured using an enzyme immunoassay.

[26] = biological target: CSK (Homo sapiens, UniProt P41240); assay: CSK enzymatic assay
Sequence of CSK (P41240 whole entry, species assumed): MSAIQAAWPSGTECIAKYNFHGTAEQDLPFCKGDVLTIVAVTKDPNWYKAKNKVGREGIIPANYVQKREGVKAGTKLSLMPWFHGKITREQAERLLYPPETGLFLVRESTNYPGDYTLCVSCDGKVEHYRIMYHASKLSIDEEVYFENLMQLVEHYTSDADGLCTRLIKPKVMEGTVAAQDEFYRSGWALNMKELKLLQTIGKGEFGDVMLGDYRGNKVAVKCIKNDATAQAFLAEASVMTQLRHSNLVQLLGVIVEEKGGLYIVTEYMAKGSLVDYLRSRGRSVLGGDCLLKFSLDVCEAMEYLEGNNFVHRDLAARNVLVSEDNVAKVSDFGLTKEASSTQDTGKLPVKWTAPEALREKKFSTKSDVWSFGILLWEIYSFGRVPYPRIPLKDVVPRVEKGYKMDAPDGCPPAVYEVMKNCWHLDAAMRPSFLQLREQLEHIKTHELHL
Method: as §7

[27] = tested on: Ramos B cells; assay: BCR-stimulated PLCγ2 phosphorylation in Ramos B cells; format: cell-based; conditions: Homo sapiens, anti-IgM, read-out: IC50, BTK-catalyzed phosphorylation of PLCγ2
Method: The cells were pelleted and lysed, and PLCγ2 levels were measured by immunoblot using rabbit anti-human phosphoY759-PLCγ2 (Cell Signaling Technology, Danvers, MA, USA) and analyzed using the Odyssey Infrared Imaging System (Li-Cor Biosciences, Lincoln, NE, USA) with normalization to an actin control to ensure consistent loading.

[28] = tested on: human peripheral blood mononuclear cells; assay: IC-stimulated IL-6 production in peripheral blood mononuclear cells; format: cell-based; conditions: PBMC, FcγR (immune complex)
Method: as §2

[29] = tested on: CAIA BALB/c mice; assay: Collagen antibody-induced arthritis (CAIA) mouse model; format: in vivo
Method: Three days later, mice were injected IP with 1.25 mg/kg LPS from Escherichia coli O111:B4 (Sigma-Aldrich). Mice were monitored daily for development and severity of paw inflammation as described previously [24].

[30] = biological target: Src (Homo sapiens, UniProt P12931); assay: Src enzymatic assay
Excerpt: as §6

[31] = tested on: CIA DBA/1 mice; assay: CIA mouse model, therapeutic dosing, with or without etanercept; format: in vivo; conditions: for Clinical score reduction at end of study: therapeutic (from day 21)
Method: Induction of CIA was performed as described previously. In brief, male DBA/1 mice (Harlan Laboratories, 8–10 weeks old) were injected subcutaneously at the base of the tail with bovine type II collagen (200 μg) admixed with reconstituted Sigma Adjuvant System (Sigma-Aldrich). The mice were boosted 21 days later in the same manner. […]
as §4

[32] = biological target: Lck (Homo sapiens, UniProt P06239); assay: Lck enzymatic assay; conditions: read-out: Biochemical IC50, Lck
[33] = tested on: human tonsillar B cells; assay: BCR-stimulated IL-6 from human tonsillar B cells; format: cell-based; conditions: B-cell, BCR (anti-IgM)
Method: as §5

Cc1c(-c2c(F)cc(C(N)=O)c3[nH]c4c(c23)CC[C@H](C(C)(C)O)C4)cccc1-n1c(=O)c2cccc(F)c2n(C)c1=O [BMS-986142, 6-fluoro-5-(R)-(3-(S)-(8-fluoro-1-methyl-2,4-dioxo-1,2-dihydroquinazolin-3(4H)-yl)-2-methylphenyl)-2-(S)-(2-hydroxypropan-2-yl)-2,3,4,9-tetrahydro-1H-carbazole-8-carboxamide]
IC50 [1]: 89 nM
IC50 [2]: 0.5 nM
IC50 [3]: 28 nM
Inhibition of anti-KLH IgM response ([4]; 30 mg/kg PO QD, day 7): 77%
Inhibition of anti-KLH IgG response ([4]; 30 mg/kg PO QD, day 14): 87%
Anti-KLH IgM and IgG antibody responses versus vehicle ([4]; 10 and 30 mg/kg PO QD): Significant reductions
IC50 [5]: > 10000 nM
IC50 [6]: 140 nM
IC50 [7]: 9 ± 5 nM
IC50 [8]: 90 nM
Lowest concentration at which inhibition of RANK-L-induced osteoclastogenesis was evident [9]: 15 nM
IC50 [10]: 3 ± 3 nM
IC50 [11]: 23 nM
Disease-associated increase in splenic CD138+B220low plasma cells [12]: inhibited
Effect on B cell numbers [12]: did not deplete B cells
Expression of CD38 on plasma cells induced by disease [12]: inhibited
Reduction in clinically evident disease at end of study ([12]; 4 mg/kg PO QD): 26%
Reduction in clinically evident disease at end of study ([12]; 10 mg/kg PO QD): 43%
Reduction in clinically evident disease at end of study ([12]; 30 mg/kg PO QD): 79%
Serum anti-collagen II IgG titers ([12]; 10 and 30 mg/kg): significantly inhibited
Reduction in inflammation and bone resorption (histology) ([12]; BMS-986142 4 mg/kg alone): 24%
IC50 [13]: 3 ± 3 nM
IC50 [14]: ≤ 5 nM
IC50 [15]: 10 nM
IC50 [16]: 32 nM
IC50 [17]: 4 ± 3 nM
IC50 [18]: 247 nM
IC50 [19]: 81 nM
IC50 [20]: 3 ± 1 nM
Reduction of clinical scores [21]: 46%
IC50 [22]: > 10000 nM
IC50 [23]: > 30000 nM
IC50 [24]: 15 nM
IC50 [25]: 3 ± 3 nM
IC50 [26]: 148 nM
IC50 [27]: ~20 nM
IC50 [28]: 4 ± 3 nM
Reduction of clinical scores at study end ([29]; 5 mg/kg, prophylactic): 72%
Inhibition of clinical scores at study end ([29]; 20 mg/kg, prophylactic): > 90%
Histological bone resorption and inflammation scores of hind paws ([29]; 5 and 20 mg/kg): effective at reducing bone resorption as well as inflammation scores
IC50 [30]: 1110 nM
Clinical score reduction at end of study ([31]; 2 mg/kg): 17%
Clinical score reduction at end of study ([31]; 4 mg/kg): 37%
Clinical score reduction at end of study ([31]; 25 mg/kg): 67%
Disease-induced remodeling/erosions and loss of bone mass compared with vehicle (micro-CT) ([31]; therapeutic, 2, 4 and 25 mg/kg): dose-dependent protection
IC50 [32]: 71 nM
IC50 [33]: 5 ± 3 nM

CN(Cc1cnc2nc(N)nc(N)c2n1)c1ccc(C(=O)N[C@@H](CCC(=O)O)C(=O)O)cc1 [MTX, methotrexate, reference compound]
Reduction in inflammation and bone resorption (histology) ([12]; MTX alone): 10%

Reference: article PMC5524405 (PLoS ONE, 2017)
